Assay results: patent publication US8637574B2, “Salts of 3-pentylphenylacetic acid and pharmaceutical uses thereof” (priority 2009, dated 2014)
Structures can show the parent of a compound that is named as a salt.

Columns and labels:
[1] = test system: RAW264.7 (macrophage-like) cells; test: Nitric oxide production in LPS/interferon-stimulated RAW264.7 cells (Griess reagent); type: cell-based; conditions: 1 μg/ml LPS and 0.5 ng/ml interferon, 16 hours, dose dependent
Protocol: The effect of Compound I on NO production was undertaken in RAW264.7 (macrophage-like) cells. RAW264.7 cells were cultured with 1 μg/ml of LPS and 0.5 ng/ml of interferon in presence or absence of the compound for 16 hours in a humidified atmosphere of 95% air-5% carbon dioxide at 37° C. Nitric oxide measurement in the culture medium was measured using the Griess reagent after an incubation of 30 minutes at room temperature. The absorbance at 548 nm was read and compared with standard solutions of NaNO2. Cell viability was assessed with the addition of 50 μl of […]. After an incubation of 4 hours, the medium was removed and 150 μl of DMSO was added to dissolve the crystals. The optical density of each sample was read at 570 nm against a blank prepared from cell-free wells.

[2] = test system: doxorubicin-induced nephrotoxicity model; test: Doxorubicin-induced nephrotoxicity model (serum albumin, serum creatinine, kidney histology); type: in vivo, mice
Protocol: C57BI/6 mice (6-10 week-old) were treated with Compound I prophylacticly from day −3 to day 10 or treated therapeutically from day 1 to 10. Nephrotoxicity was induced by an intravenous injection of 10 mg/kg of doxorubicin at day 0. Serum albumin and creatinine were monitored at days 4, 7, 9 and 11.

[3] = test system: ⅚ nephrectomized (Nx) rat model; test: Kidney protection in ⅚ nephrectomized rat model (GFR, creatinine clearance); type: in vivo; conditions: Nx rats over treatment period; 50% deterioration in Nx control rats (FIG. 5)
Excerpt: Male 6 week-old Wistar rats were subjected to ⅚ nephrectomy or sham operations. Under fluothane anesthesia, renal ablation was achieved by removing two-thirds of the left kidney followed by a right unilateral nephrectomy 7 days later. Sham rats underwent exposition of the kidneys and removal of the perirenal fat. Twenty-one days after the first operation, rats were randomized in the study by their reduced glomerular filtration rate (GFR) of creatinine indicating a dysfunction of the kidney. Animals that underwent the sham operation were given vehicle (saline) and were used as controls. Nx animals were divided in groups receiving the vehicle or Compound I. Saline or Compound I was given by gastric gavage once daily up to the sacrifice. GFR was measured every three weeks in order to assess the severity of this end-stage renal disease model. Rats were sacrificed at day 190.

[4] = Physical properties of the salt and the free acid (hygroscopicity, water solubility); type: physicochemical
PGE2 = test: LPS-induced inflammation in the rat air-pouch model (PGE2 in pouch exudates by ELISA); type: in vivo, rats; conditions: two hours after administration of LPS (FIG. 3)
Excerpt: LPS-induced inflammation in the rat air-pouch model is believed to mimic the pathological process occurring in joint diseases such as arthritis. This is because the connective tissues formed along the air pouch are similar to those found in chronic joint diseases. LPS-induced inflammation and chronic joint diseases share other features, including markedly elevated PGE2, neutrophil infiltration, cytokine formation, and tissue damage. An air cavity was produced at day −6 by subcutaneous injection of 20 ml of sterile air into the intrascapular area of the back of male Lewis rats (175-200 g). An additional 10 ml of air was injected into the cavity at day −3 to keep the space open. At day 0, Compound I was administered intravenously and one hour later lipopolysaccharide (LPS: 2.5 ml, 2 μg/ml in PBS) was injected into the pouch to produce an inflammatory reaction. Two hours after treatment with LPS, animals were euthanized by CO2 asphyxiation and 5 ml of PBS/heparin (10 U/ml)/indomethacin (36 μg/ml) was injected into the pouch. The pouch fluid was collected and PGE2 was determined in the pouch exudates by ELISA.

CCCCCc1cccc(CC(=O)O)c1 [Compound I, sodium salt of 3-pentylphenylacetic acid]
inhibition of NO production [1]: about 50% | kidney lesions at the tubular level induced by doxorubicin (histological score) ([2]; prophylactic (pre-doxorubicin) and therapeutic (post-doxorubicin) treatments, mice (FIG. 9)): reduce the kidney lesions | protection of kidney against doxorubicin toxicity (histological micrographs) ([2]; prophylactic or therapeutic treatment, mice (FIG. 10)): protects kidney against doxorubicin toxicity | decrease of serum albumin induced by doxorubicin ([2]; prophylactic treatment day −3 to day 10, oral, mice (FIG. 7)): inhibits | increase of serum creatinine induced by doxorubicin ([2]; prophylactic treatment day −3 to day 10, oral, mice (FIG. 8)): inhibits | increase of serum creatinine level induced by doxorubicin ([2]; therapeutic treatment day 1 to 10, oral, mice (FIG. 8)): inhibits | improvement of GFR compared to the initial GFR (before treatment) at day 21 [3]: 50% | hygroscopicity [4]: not hygroscopic | water solubility [4]: very water soluble

COc1cccc2c1C(=O)c1c(O)c3c(c(O)c1C2=O)C[C@@](O)(C(=O)CO)C[C@@H]3O[C@H]1C[C@H](N)[C@H](O)[C@H](C)O1 [Doxorubicin, doxorubicin, reference compound]
kidney lesions induced by doxorubicin alone (histological score) ([2]; doxorubicin 10 mg/kg i.v. day 0, mice, day 7 and 11): significant kidney lesions

COc1ccc2c(c1)c(CC(=O)O)c(C)n2C(=O)c1ccc(Cl)cc1 [indomethacin]
inhibition of PGE2 (PGE2): inhibition
